Measured values: patent publication EP3725799B1, “PEPTIDE BINDING TO PL-L1 AND USE THEREOF” (Kyungpook National University Industry-Academic Cooperation …, priority 2017, dated 2025)
No end group written: not given here.

What was measured:
[1] = tested on: CT26 syngeneic mouse model; test: Antitumor therapy with PD-L1 binding peptides alone (tumor volume, body weight, survival, immune cell analysis, immunostaining); assay type: in vivo; settings: peptide intravenously every alternative day for 24 days; compared to the control peptide and PBS group
Procedure: 6-8-week-old WT Balb/c mice were purchased. Mice was cared and maintained under the guidelines of the Institutional Animal Care and Use Committee (IACUC) of Kyungpook National University (2014-0001-8.). Tumor was injected onto the lower right flank of the mice. For the in-vivo homing imaging, the tumor was developed for 7 days, after the tumor size reached to 100mm^3, the mice were injected with 100µl of 100mM Flamma-675 NIR fluorescence dye labelled peptides and allow the complete circulation for an hour. After incubation, the mice were anesthetized, and the image was taken using the IVIS imaging system. […] Tumor size was measured using a digital caliper, and the tumor volume was calculated using the formula (Volume ¼(L-W-H)/2. (Length: longest dimension, Width: shorter dimension, parallel to the mouse body and Height: perpendicular to the length and width). All mice were checked for the ulceration and at the end of the treatment and the mice were sacrificed for the immune cell analysis. […]
Tumors were isolated, minced and incubated with a digestion buffer containing collagenase D (5mg/ml) with the RPMI-1640 medium at 37 °C for 40min. […] The single cell suspension was made ready to use and CD45 antibody was used to stain the tumor infiltrating leukocytes and then analyzed with following antibodies for CD4, CD8 and F4/80. […]

[2] = tested on: CT26 mouse syngeneic colon tumor model; test: Combination therapy of PD-L1 binding peptides with doxorubicin (tumor volume, body weight, survival, immune cell analysis by flow cytometry); assay type: in vivo
Procedure: 6-8-week-old WT Balb/c mice were purchased. Mice was cared and maintained under the guidelines of the Institutional Animal Care and Use Committee (IACUC) of Kyungpook National University (2014-0001-8.). Tumor was injected onto the lower right flank of the mice. For the in-vivo homing imaging, the tumor was developed for 7 days, after the tumor size reached to 100mm^3, the mice were injected with 100µl of 100mM Flamma-675 NIR fluorescence dye labelled peptides and allow the complete circulation for an hour. After incubation, the mice were anesthetized, and the image was taken using the IVIS imaging system. After completing the imaging, the mice were sacrificed and the tumor along with the other organs were isolated out and subjected to ex-vivo imaging using the IVIS imaging machine. For the antitumor therapy the mice were randomized and grouped after the tumor size was reached to approximately 100mm^3. The peptide was then injected intravenously (5mg/kg) 100µg/mice for 3 weeks, 3 injections/ week. Doxorubicin was injected intraperitoneal (4mg/kg) once a week. Tumor size was measured using a digital caliper, and the tumor volume was calculated using the formula (Volume ¼(L-W-H)/2. (Length: longest dimension, Width: shorter dimension, parallel to the mouse body and Height: perpendicular to the length and width). All mice were checked for the ulceration and at the end of the treatment and the mice were sacrificed for the immune cell analysis.
Tumors were isolated, minced and incubated with a digestion buffer containing collagenase D (5mg/ml) with the RPMI-1640 medium at 37 °C for 40min. The cell suspension was passed through a cell strainer. The single cell suspension was made ready to use and CD45 antibody was used to stain the tumor infiltrating leukocytes and then analyzed with following antibodies for CD4, CD8 and F4/80. The stained cells were then subjected to flow cytometry (Novocyte).
To enhance the efficacy of immunotherapy with PD-L1-binding peptides, the present inventors combined the peptides with doxorubicin, a chemotherapeutic agent known to induce immunogenic cell death, in CT26 mouse syngeneic colon tumor model. PD-L1 peptides doses were reduced from 12 injections to 9 injections and doxorubicin was given once a week (FIG. 6a). The combination therapy controlled the tumor volume more drastically compared to the previous single treatment (FIG. 6b). In addition, the combination therapy maintained the body weight unchanged compared to the control group, and increased the survival percentage (FIG. 6c and FIG. 6d).

[3] = Serum stability of PD-L1 targeting peptides; assay type: in vitro ADME; settings: incubated with whole serum obtained from mice up to 24h; HPLC peptide peak
Procedure: Mouse blood was collected and allowed to cloth using a microtube for 15-20 min in RT. Serum was then centrifuged at 12000rpm at 4 °C. The upper portion (serum) was collected for testing the peptide stability. The incubated samples were diluted 100-fold and fractionated by C18 reverse phage high performance liquid chromatography (HPLC) with a linear gradient of acetonitrile (0.1% trifluoroacetate in water for equilibration and 0.1% trifluoroacetate in acetonitrile for elution). The peptide peak was collected and vacuum dried.
To measure the KD values of the peptides SPR assays were performed using a streptavidin chip coated with biotin-peptides (FIG. 3a and FIG. 3b). Four different concentrations of PD-L1 binding peptides were for PD-L1Pep-2. […] PD-L1 expression was then knocked down in the MDA-MB231 cell expressing PD-L1. siRNA was tested at different concentration (FIG. 3d). […] To further examine the stability of PD-L1 binding peptides, the peptide was incubated with whole serum obtained from mice up to 24h.

[4] = target: T1, GFP-tagged PD-L1 transiently overexpressed on Hek-293T cells (human, UniProt Q9NZQ7 19-290); test: immunofluorescence, FITC-peptide on transfected HEK 293T cells
T1 construct: whole, on cells; also called PD-L1-overexpressing cells; not shown: GFP tag

PD-L1 on MDA-MB231 cells = target: T2, PD-L1 on MDA-MB231 cells (human, UniProt Q9NZQ7 19-290); test: immunofluorescence and flow cytometry, FITC-peptide on MDA-MB231 cells
T2 construct: whole, on cells; also called MDA-MB 231 cells expressing PD-L1

[5] = target: T1, GFP-tagged PD-L1 transiently …; test: phage peptide display selection on PD-L1 overexpressing cells
[6] = 'from' value of the printed increase, apparently single peptide treatment
[7] = 'to' value of the printed increase, apparently combination with doxorubicin

T1 sequence (Q9NZQ7 19-290): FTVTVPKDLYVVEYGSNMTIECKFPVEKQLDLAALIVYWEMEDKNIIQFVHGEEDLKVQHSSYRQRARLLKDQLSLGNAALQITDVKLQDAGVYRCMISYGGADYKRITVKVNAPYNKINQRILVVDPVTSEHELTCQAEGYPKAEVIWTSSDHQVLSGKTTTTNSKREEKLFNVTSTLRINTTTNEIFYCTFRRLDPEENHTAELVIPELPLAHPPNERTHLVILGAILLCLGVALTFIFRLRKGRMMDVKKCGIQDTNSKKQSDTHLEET
T2 sequence (Q9NZQ7 19-290): as above

CLQKTPKQC [PD-L1Pep-1]
tumor volume [1]: robust effect
CD4+ T cells in tumor tissue [2, 6]: 0.4%
expression percentage of CD8+ T cells in tumor tissue [2, 6]: 1.5%
CD4+ T cells in tumor tissue [2, 7]: 6%
expression percentage of CD8+ T cells in tumor tissue [2, 7]: 6.2%
time the peptide peak remained intact in serum [3]: 8 h

CVRARTR [PD-L1Pep-2, CVRARTR]
time the peptide peak remained intact in serum [3]: 4 h

B1: PD-L1Pep-2 (peptide)
peptide: CVRARTR
modifications: also: N-terminal FITC, biotin or Flamma-675 according to assay
notes: Synthetic 7mer (CVRARTR); also called PBP
binding result [4]: binds
binding result (PD-L1 on MDA-MB231 cells): binds

B2: PD-L1Pep-1 (peptide)
peptide: CLQKTPKQC
modifications: cysteine pairing not given here; also: N-terminal FITC, biotin or Flamma-675 according to assay
notes: also called PBP
binding result [5]: binds
binding result (PD-L1 on MDA-MB231 cells): binds
